Data as given in ChEMBL document CHEMBL1137024, “Acyl-CoA: cholesterol acyltransferase inhibitory activities of fatty acid amides isolated from Mylabris phalerate Pallas” (Bioorg Med Chem Lett, 2004).

What was measured:
[1] = target: Sterol O-acyltransferase 2 (Homo sapiens, UniProt O75908); assay: Inhibitory activity against human Acyl coenzyme A:cholesterol acyltransferase 2
[2] = target: T1, Sterol O-acyltransferase 1 (Rattus norvegicus, UniProt O70536); assay: Inhibitory activity against rat liver microsomal Acyl coenzyme A:cholesterol acyltransferase
T1 sequence (O70536 whole entry): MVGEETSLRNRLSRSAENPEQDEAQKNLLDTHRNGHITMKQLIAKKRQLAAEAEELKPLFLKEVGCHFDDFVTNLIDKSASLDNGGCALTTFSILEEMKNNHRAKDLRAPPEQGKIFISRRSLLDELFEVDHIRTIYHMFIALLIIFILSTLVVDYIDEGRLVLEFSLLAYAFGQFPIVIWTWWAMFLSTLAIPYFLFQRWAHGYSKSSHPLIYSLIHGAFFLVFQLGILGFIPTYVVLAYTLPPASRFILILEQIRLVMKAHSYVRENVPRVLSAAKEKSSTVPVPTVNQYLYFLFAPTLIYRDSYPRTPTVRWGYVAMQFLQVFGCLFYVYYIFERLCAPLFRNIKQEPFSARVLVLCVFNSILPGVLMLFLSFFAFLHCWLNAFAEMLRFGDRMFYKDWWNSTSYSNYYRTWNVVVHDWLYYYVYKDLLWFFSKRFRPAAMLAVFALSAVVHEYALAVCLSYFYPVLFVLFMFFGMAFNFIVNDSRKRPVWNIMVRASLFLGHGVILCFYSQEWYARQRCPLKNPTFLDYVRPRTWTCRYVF

[3] = target: T2, Sterol O-acyltransferase 1 (Homo sapiens, UniProt P35610); assay: Inhibitory activity against human Acyl coenzyme A:cholesterol acyltransferase 1
T2 sequence (P35610 whole entry): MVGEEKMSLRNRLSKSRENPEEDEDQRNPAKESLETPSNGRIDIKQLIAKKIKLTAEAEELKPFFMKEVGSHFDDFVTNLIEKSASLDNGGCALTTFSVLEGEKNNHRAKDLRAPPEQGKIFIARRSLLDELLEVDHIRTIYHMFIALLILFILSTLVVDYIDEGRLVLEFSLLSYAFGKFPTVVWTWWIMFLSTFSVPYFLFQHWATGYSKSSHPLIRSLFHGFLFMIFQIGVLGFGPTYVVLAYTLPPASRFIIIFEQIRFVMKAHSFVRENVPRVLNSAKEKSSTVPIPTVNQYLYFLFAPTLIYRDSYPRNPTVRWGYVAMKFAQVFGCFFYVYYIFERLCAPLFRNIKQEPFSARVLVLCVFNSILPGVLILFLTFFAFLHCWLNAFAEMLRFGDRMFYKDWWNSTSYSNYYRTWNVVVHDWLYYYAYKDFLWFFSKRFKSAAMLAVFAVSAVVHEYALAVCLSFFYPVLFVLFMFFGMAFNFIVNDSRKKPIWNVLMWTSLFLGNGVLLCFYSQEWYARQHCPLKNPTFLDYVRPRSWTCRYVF

Sequence of Sterol O-acyltransferase 2 (O75908 whole entry, looked up): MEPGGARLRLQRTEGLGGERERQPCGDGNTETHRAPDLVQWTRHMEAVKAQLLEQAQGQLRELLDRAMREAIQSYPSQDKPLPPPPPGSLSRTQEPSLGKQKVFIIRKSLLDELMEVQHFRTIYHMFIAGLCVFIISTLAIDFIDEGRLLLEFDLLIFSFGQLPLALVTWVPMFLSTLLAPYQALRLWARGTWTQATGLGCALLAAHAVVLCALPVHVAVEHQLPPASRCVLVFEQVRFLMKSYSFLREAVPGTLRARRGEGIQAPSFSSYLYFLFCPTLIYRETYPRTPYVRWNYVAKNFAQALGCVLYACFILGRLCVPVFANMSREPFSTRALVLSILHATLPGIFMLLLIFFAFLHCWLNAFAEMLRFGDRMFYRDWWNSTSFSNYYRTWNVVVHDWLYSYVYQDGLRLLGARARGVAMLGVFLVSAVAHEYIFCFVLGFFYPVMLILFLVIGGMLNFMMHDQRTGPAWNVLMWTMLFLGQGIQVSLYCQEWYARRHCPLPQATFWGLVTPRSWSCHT

SMILES	IC50 [1] [µM]	IC50 [2] [µM]	IC50 [3] [µM]
CCCCC/C=C\C/C=C\CCCCCCCC(=O)O [LINOLEIC ACID]	> 1000	> 1000	> 1000
CCCCCCCC/C=C\CCCCCCCC(=O)O [OLEIC ACID]	> 1000	> 1000	> 1000
CC(=O)OC[C@@]1(C)[C@@H]2C[C@H](OC(C)=O)[C@@]3(C)Oc4cc(-c5cccnc5)oc(=O)c4[C@H](O)[C@@H]3[C@@]2(C)CC[C@@H]1OC(C)=O [PYRIPYROPENE A]		0.17	
